Test results taken from US8987217B2, “Modified saponins for the treatment of fungal infections” (The General Hospital Corporation, priority 2010, dated 2015).
Converted amounts (≈) assume the structure as drawn. Like-named read-outs stand apart in the source and are kept apart here.

Columns and labels:
Assay type in all cases: cell-based
C. albicans strains = assay: MIC by standard CLSI microdilution protocol M27-A
Experimental: Using the standard Clinical and Laboratory Standards Institute (CLSI) procedure, the in vitro MIC of these two compounds was determined on the following C. albicans strains: DAY185 (the standard strain used throughout the screen), two fluconazole-resistant strains of C. albicans, and an echinocandin-resistant strain of C. albicans (Table 2).
(§1) The minimal inhibitory concentration (MIC) was determined for strains DAY185, 98-145, 95-120 (White et al., Antimicrob Agents Chemother, 46:1704-1713 (2002)), and A15-10 (Garcia-Effron et al., Antimicrob Agents Chemother, 53:112-122 (2009)) spectrophotometrically using RPMI 1640 media (Mediatech, Inc.) following the standard CLSI microdilution protocol M27-A (National Committee for Clinical Laboratory Standards, Reference method for broth dilution susceptibility testing of yeasts. Tentative standard M27-A, Villanova, Pa. (1995)). Biofilm assays using identified compounds were conducted as previously described (Richard et al., Eukaryot Cell, 4:1493-1502 (2005)). The biofilm dry mass was determined by drying the silicone squares in a chemical hood, and weighing the resulting biofilm mass subtracting the previously weighed mass of the silicone square. Biofilm pictures were captured using a confocal laser microscope (TCS NT, Leica Microsystems). Cells were grown at 30° C., exposed to PS for 30 min, and then washed with PBS.

C. albicans biofilm = assay: biofilm formation on silicone pads (dry mass); details: 10 μg/mL (below the MIC), compared with caspofungin
Experimental: as §1, with “Biofilm pictures were captured using a confocal laser microscope (TCS NT, Leica Microsystems). Cells were grown at 30° C., exposed to PS for 30 min, and then washed with PBS.” left out
Caspofungin (Merck) served as a known antifungal compound control. In vitro hyphal inhibition was assessed by incubation of DAY185 in RPMI 1640 media at 37° C. […] The ability of the antifungal compound A16, at either 2 or 4 μg/mL, to induce osmotic stress was assessed using DAY185 grown in a 96 well microtiter plate containing RPMI 1640 media and NaCl, ranging in concentrations from 0-2 M in 0.25 M increments. The growth of the fungus was measured spectrophotometrically after 48 hours of growth at 35° C.

C. albicans DAY185 = assay: photodynamic inactivation (PDI) with photosensitizers; details: 4 μg/mL A16, 10 μM PEI-ce6
Experimental: The PS used were Rose Bengal (RB, Sigma-Aldrich, St. Louis, Mo.) and chlorin(e6) (ce6, Frontier Scientific, Logan, Utah). PEI-ce6 was synthesized as a covalent conjugate between polyethylenimine (MW range 10,000-25,000, an average of one ce6 per chain) and ce6 as described previously (Tegos et al., Antimicrob Agents Chemother, 50:1402-1410 (2006)). Stock solutions were prepared in water at a concentration of 2 mM and stored for a maximum of 2 weeks in the dark at 4° C. before use. Spectra of stock solutions of PS diluted 140- to 280-fold in methanol were recorded. A noncoherent light source with interchangeable fiber bundles (LC122; LumaCare, London, United Kingdom) was employed. Thirty-nanometer-band-pass filters at ranges of 540±15 nm for RB, and 660±15 nm for ce6 and PEI-ce6 were used. […]
Photodynamic inactivation utilizes a non-toxic dye, or photosensitizer (PS), which is able to generate reactive oxygen species, such as singlet oxygen and hydroxyl radical, in the presence of oxygen and low-intensity light of the correct wavelength to be absorbed by the PS ultimately producing toxic effects in microbial cells (Fuchs et al., Antimicrob Agents Chemother, 51:2929-2936 (2007)). […] The survival fraction and uptake (molecules/cell) of C. albicans was determined for PDI mediated by the 3 different PSs with or without A16 pre-incubation for various time periods ranging between 1-24 hours. […]

In the case of CC1CC[C@@]2(OC1)O[C@H]1CC3C4C[C@@H](O)C5C[C@@H](O[C@@H]6O[C@H](CO)[C@H](O[C@@H]7O[C@H](CO)[C@@H](O)[C@H](O[C@@H]8OC[C@@H](O)[C@H](O)[C@H]8O)[C@H]7O[C@@H]7O[C@H](CO)[C@@H](O)[C@H](O)[C@H]7O)[C@H](O)[C@H]6O)[C@H](O)C[C@]5(C)C4CC[C@]3(C)[C@H]1[C@@H]2C (some centres unmarked) [A16, Aginoside], the MIC (C. albicans strains) is reported as 16 µg/mL (≈ 15 µM), the MIC (C. albicans strains; C. albicans DAY185) is reported as 16 µg/mL (≈ 15 µM) and the MIC (C. albicans strains; echinocandin-resistant strain A15) is reported as 16 µg/mL (≈ 15 µM). For the same compound, the biofilm formation (C. albicans biofilm) was “able to inhibit biofilm formation” and the “killing by PEI-ce6 mediated PDI after pre-incubation with A16” value (C. albicans DAY185) was “does not change dramatically”.
